# Laboratory results reported in patent US8188098B2, “GPR119 receptor agonists” (Hoffmann-La Roche Inc., priority 2008, dated 2012).
# Target: T1, GPR119 receptor (Mesocricetus auratus, UniProt A0A1U8CD06)
# T1 construct: which endogenously express the GPR119 receptor; host or cells: HIT-T15 hamster pancreatic islet cells
# T1 sequence (A0A1U8CD06 1-334): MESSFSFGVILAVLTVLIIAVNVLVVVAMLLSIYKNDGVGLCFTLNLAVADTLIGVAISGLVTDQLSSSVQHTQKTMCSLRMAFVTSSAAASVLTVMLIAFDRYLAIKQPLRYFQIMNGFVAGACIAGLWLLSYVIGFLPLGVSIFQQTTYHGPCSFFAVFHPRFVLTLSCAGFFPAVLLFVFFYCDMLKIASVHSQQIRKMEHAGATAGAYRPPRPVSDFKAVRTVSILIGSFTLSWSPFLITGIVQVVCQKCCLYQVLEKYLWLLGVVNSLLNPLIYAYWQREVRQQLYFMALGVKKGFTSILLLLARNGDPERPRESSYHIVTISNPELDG
# Assay: cAMP assay in HIT-T15 hamster pancreatic islet cells (functional agonist activity)
# Format: cell-based
# Details: HIT-T15 cells endogenously expressing GPR119; 30 min at 25° C.; intracellular cAMP
# Summary of the method: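 cAMP immunoassay with luminescent read-out, EC50 fitted, after a 30 min, 25° C agonist incubation in HIT-T15 hamster islet cells expressing GPR119 natively. Medium contained 0.5 mM IBMX and 0.5 mg/ml BSA; 9000 cells/well.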
row,SMILES,EC50
1,"Cc1ncccc1Oc1ncnc2c1cnn2C1CCN(C(=O)Oc2ccc([N+](=O)[O-])cc2)CC1 [Example 123, 4-[4-(2-Methyl-pyridin-3-yloxy)-pyrazolo[3,4-d]pyrimidin-1-yl]-piperidine-1-carboxylic acid 4-nitro-phenyl ester]",2.7 µM
2,"Cc1ncccc1Oc1ncnc2c1cnn2C1CCN(C(=O)OCc2ccccc2)CC1 [Example 124, 4-[4-(2-Methyl-pyridin-3-yloxy)-pyrazolo[3,4-d]pyrimidin-1-yl]-piperidine-1-carboxylic acid benzyl ester]",0.24 µM
3,"Cc1ncccc1Oc1ncnc2c1cnn2C1CCN(C(=O)OC2CCCCC2)CC1 [Example 125, 4-[4-(2-Methyl-pyridin-3-yloxy)-pyrazolo[3,4-d]pyrimidin-1-yl]-piperidine-1-carboxylic acid cyclohexyl ester]",0.57 µM
4,"CC(C)c1noc(N2CCC(n3ncc4c(Oc5ccc(S(C)(=O)=O)cc5)ncnc43)CC2)n1 [Example 126, 1-[1-(3-Isopropyl-[1,2,4]oxadiazol-5-yl)-piperidin-4-yl]-4-(4-methanesulfonyl-phenoxy)-1H-pyrazolo[3,4-d]pyrimidine]",0.43 µM
5,"CC(C)c1noc(N2CCC(n3ncc4c(Oc5ccc(S(C)(=O)=O)cc5F)ncnc43)CC2)n1 [Example 127, 4-(2-Fluoro-4-methanesulfonyl-phenoxy)-1-[1-(3-isopropyl-[1,2,4]oxadiazol-5-yl)-piperidin-4-yl]-1H-pyrazolo[3,4-d]pyrimidine]",0.068 µM
6,"CC(C)c1noc(N2CCC(n3ncc4c(Oc5ccc(S(C)(=O)=O)c(F)c5)ncnc43)CC2)n1 [Example 128, 4-(3-Fluoro-4-methanesulfonyl-phenoxy)-1-[1-(3-isopropyl-[1,2,4]oxadiazol-5-yl)-piperidin-4-yl]-1H-pyrazolo[3,4-d]pyrimidine]",0.16 µM
7,"Cc1ncccc1Oc1ncnc2c1cnn2C1CCN(c2nc(C(C)C)no2)CC1 [Example 129, 1-[1-(3-Isopropyl-[1,2,4]oxadiazol-5-yl)-piperidin-4-yl]-4-(2-methyl-pyridin-3-yloxy)-1H-pyrazolo[3,4-d]pyrimidine]",2.3 µM
8,"CS(=O)(=O)c1ccc(Oc2ncnc3c2cnn3C2CCN(c3ccc(Cl)nn3)CC2)cc1 [Example 130, 1-[1-(6-Chloro-pyridazin-3-yl)-piperidin-4-yl]-4-(4-methanesulfonyl-phenoxy)-1H-pyrazolo[3,4-d]pyrimidine]",0.71 µM
9,"CC(C)c1noc(C2CCC(n3ncc4c(Oc5ccc(S(C)(=O)=O)cc5F)ncnc43)CC2)n1 (stereo not shown) [Example 131, 4-(2-Fluoro-4-methanesulfonyl-phenoxy)-1-[4-(3-isopropyl-[1,2,4]oxadiazol-5-yl)-cyclohexyl]-1H-pyrazolo[3,4-d]pyrimidine]",0.39 µM
10,"CC(C)c1noc([C@H]2CC[C@H](n3ncc4c(Oc5ccc(S(C)(=O)=O)cc5F)ncnc43)CC2)n1 [Example 132, 4-(2-Fluoro-4-methanesulfonyl-phenoxy)-1-[4-(3-isopropyl-[1,2,4]oxadiazol-5-yl)-trans-cyclohexyl]-1H-pyrazolo[3,4-d]pyrimidine]",0.35 µM
11,"Cc1nnnn1-c1ccc(Oc2ncnc3c2cnn3[C@H]2CC[C@H](c3nc(C(C)C)no3)CC2)cc1 [Example 133, 1-[4-(3-Isopropyl-[1,2,4]oxadiazol-5-yl)-trans-cyclohexyl]-4-[4-(5-methyl-tetrazol-1-yl)phenoxy]-1H-pyrazolo[3,4-d]pyrimidine]",3.34 µM
12,"Cc1ncccc1Oc1ncnc2c1cnn2C1CCC(c2nc(C(C)C)no2)CC1 (stereo not shown) [Example 135, 1-[4-(3-Isopropyl-[1,2,4]oxadiazol-5-yl)-cyclohexyl]-4-(2-methyl-pyridin-3-yloxy)-1H-pyrazolo[3,4-d]pyrimidine]",0.92 µM
13,"CC(C)C(=O)N1CCC(n2ncc3c(Oc4ccc(S(C)(=O)=O)cc4)ncnc32)CC1 [Example 136, 1-{4-[4-(4-Methanesulfonyl-phenoxy)-pyrazolo[3,4-d]pyrimidin-1-yl]-piperidin-1-yl}-2-methyl-propan-1-one]",0.99 µM
14,"CC(C)(C)C(=O)N1CCC(n2ncc3c(Oc4cc(F)c(F)cc4F)ncnc32)CC1 [Example 137, 2,2-Dimethyl-1-{4-[4-(2,4,5-trifluoro-phenoxy)-pyrazolo[3,4-d]pyrimidin-1-yl]-piperidin-1-yl}-propan-1-one]",1.6 µM
15,"CC(C)(C)C(=O)N1CCC(n2ncc3c(Oc4ccc(S(C)(=O)=O)cc4)ncnc32)CC1 [Example 138, 1-{4-[4-(4-Methanesulfonyl-phenoxy)-pyrazolo[3,4-d]pyrimidin-1-yl]-piperidin-1-yl}-2,2-dimethyl-propan-1-one]",0.78 µM
16,"CS(=O)(=O)c1ccc(Oc2ncnc3c2cnn3C2CCN(C(=O)C3CCC3)CC2)cc1 [Example 140, Cyclobutyl-{4-[4-(4-methanesulfonyl-phenoxy)-pyrazolo[3,4-d]pyrimidin-1-yl]-piperidin-1-yl}-methanone]",0.75 µM

row,SMILES,EC50
1,"CS(=O)(=O)c1ccc(Oc2ncnc3c2cnn3C2CCN(C(=O)C3CCCC3)CC2)cc1 [Example 141, Cyclopentyl-{4-[4-(4-methanesulfonyl-phenoxy)-pyrazolo[3,4-d]pyrimidin-1-yl]-piperidin-1-yl}-methanone]",0.42 µM
2,"CC(C)CC(=O)N1CCC(n2ncc3c(Oc4ccc(S(C)(=O)=O)cc4)ncnc32)CC1 [Example 142, 1-{4-[4-(4-Methanesulfonyl-phenoxy)-pyrazolo[3,4-d]pyrimidin-1-yl]-piperidin-1-yl}-3-methyl-butan-1-one]",0.33 µM
3,"CC(C)CCC(=O)N1CCC(n2ncc3c(Oc4ccc(S(C)(=O)=O)cc4)ncnc32)CC1 [Example 143, 1-{4-[4-(4-Methanesulfonyl-phenoxy)-pyrazolo[3,4-d]pyrimidin-1-yl]-piperidin-1-yl}-4-methylpentan-1-one]",0.44 µM
4,"CC(C)(C)CC(=O)N1CCC(n2ncc3c(Oc4ccc(S(C)(=O)=O)cc4)ncnc32)CC1 [Example 144, 1-{4-[4-(4-Methanesulfonyl-phenoxy)-pyrazolo[3,4-d]pyrimidin-1-yl]-piperidin-1-yl}-3,3-dimethyl-butan-1-one]",0.27 µM
5,"CS(=O)(=O)c1ccc(Oc2ncnc3c2cnn3C2CCN(C(=O)CC3CCCCC3)CC2)cc1 [Example 145, 2-Cyclohexyl-1-{4-[4-(4-methanesulfonyl-phenoxy)-pyrazolo[3,4-d]pyrimidin-1-yl]-piperidin-1-yl}-ethanone]",0.58 µM
6,"CS(=O)(=O)c1ccc(Oc2ncnc3c2cnn3C2CCN(C(=O)CCc3ccccc3)CC2)cc1 [Example 146, 1-{4-[4-(4-Methanesulfonyl-phenoxy)-pyrazolo[3,4-d]pyrimidin-1-yl]-piperidin-1-yl}-3-phenyl-propan-1-one]",1 µM
7,"CCOc1ccc(Oc2ncnc3c2cnn3C2CCN(C(=O)C3CCCC3)CC2)c(F)c1 [Example 147, Cyclopentyl-{4-[4-(4-ethoxy-2-fluoro-phenoxy)-pyrazolo[3,4-d]pyrimidin-1-yl]-piperidin-1-yl}-methanone]",0.26 µM
8,"CS(=O)(=O)c1ccc(Oc2ncnc3c2cnn3C2CCN(C(=O)C(F)(F)F)CC2)cc1 [Example 148, 2,2,2-Trifluoro-1-{4-[4-(4-methanesulfonyl-phenoxy)-pyrazolo[3,4-d]pyrimidin-1-yl]-piperidin-1-yl}-ethanone]",1.7 µM
9,"CS(=O)(=O)c1ccc(Oc2ncnc3c2cnn3C2CCN(C(=O)c3ccccc3)CC2)cc1 [Example 149, {4-[4-(4-Methanesulfonyl-phenoxy)-pyrazolo[3,4-d]pyrimidin-1-yl]-piperidin-1-yl}-phenylmethanone]",1.7 µM
10,"CS(=O)(=O)c1ccc(Oc2ncnc3c2cnn3C2CCN(C(=O)c3cc(Cl)cc(Cl)c3)CC2)cc1 [Example 150, (3,5-Dichloro-phenyl)-{4-[4-(4-methanesulfonyl-phenoxy)-pyrazolo[3,4-d]pyrimidin-1-yl]-piperidin-1-yl}-methanone]",2.1 µM
11,"Cc1cc(C(=O)N2CCC(n3ncc4c(Oc5ccc(S(C)(=O)=O)cc5)ncnc43)CC2)nn1C [Example 152, (1,5-Dimethyl-1H-pyrazol-3-yl)-{4-[4-(4-methanesulfonyl-phenoxy)-pyrazolo[3,4-d]pyrimidin-1-yl]-piperidin-1-yl}-methanone]",0.39 µM
12,"Cc1cc(C(=O)N2CCC(n3ncc4c(Oc5ccc(S(C)(=O)=O)cc5)ncnc43)CC2)no1 [Example 153, {4-[4-(4-Methanesulfonyl-phenoxy)-pyrazolo[3,4-d]pyrimidin-1-yl]-piperidin-1-yl}-(5-methyl-isoxazol-3-yl)-methanone]",4.4 µM
13,"CC(C)Cc1cc(C(=O)N2CCC(n3ncc4c(Oc5ccc(S(C)(=O)=O)cc5)ncnc43)CC2)no1 [Example 154, (5-Isobutyl-isoxazol-3-yl)-{4-[4-(4-methanesulfonyl-phenoxy)-pyrazolo[3,4-d]pyrimidin-1-yl]-piperidin-1-yl}-methanone]",0.36 µM
14,"CS(=O)(=O)c1ccc(Oc2ncnc3c2cnn3C2CCN(C(=O)c3cccs3)CC2)cc1 [Example 155, {4-[4-(4-Methanesulfonyl-phenoxy)-pyrazolo[3,4-d]pyrimidin-1-yl]-piperidin-1-yl}-thiophen-2-yl-methanone]",1.6 µM
15,"CS(=O)(=O)c1ccc(Oc2ncnc3c2cnn3C2CCN(C(=O)c3nc4ccccc4s3)CC2)cc1 [Example 156, Benzothiazol-2-yl-{4-[4-(4-methanesulfonyl-phenoxy)-pyrazolo[3,4-d]pyrimidin-1-yl]-piperidin-1-yl}-methanone]",0.16 µM
